The target of the assay is T1, P-selectin (Homo sapiens, UniProt P16109).
T1 sequence (P16109 whole entry): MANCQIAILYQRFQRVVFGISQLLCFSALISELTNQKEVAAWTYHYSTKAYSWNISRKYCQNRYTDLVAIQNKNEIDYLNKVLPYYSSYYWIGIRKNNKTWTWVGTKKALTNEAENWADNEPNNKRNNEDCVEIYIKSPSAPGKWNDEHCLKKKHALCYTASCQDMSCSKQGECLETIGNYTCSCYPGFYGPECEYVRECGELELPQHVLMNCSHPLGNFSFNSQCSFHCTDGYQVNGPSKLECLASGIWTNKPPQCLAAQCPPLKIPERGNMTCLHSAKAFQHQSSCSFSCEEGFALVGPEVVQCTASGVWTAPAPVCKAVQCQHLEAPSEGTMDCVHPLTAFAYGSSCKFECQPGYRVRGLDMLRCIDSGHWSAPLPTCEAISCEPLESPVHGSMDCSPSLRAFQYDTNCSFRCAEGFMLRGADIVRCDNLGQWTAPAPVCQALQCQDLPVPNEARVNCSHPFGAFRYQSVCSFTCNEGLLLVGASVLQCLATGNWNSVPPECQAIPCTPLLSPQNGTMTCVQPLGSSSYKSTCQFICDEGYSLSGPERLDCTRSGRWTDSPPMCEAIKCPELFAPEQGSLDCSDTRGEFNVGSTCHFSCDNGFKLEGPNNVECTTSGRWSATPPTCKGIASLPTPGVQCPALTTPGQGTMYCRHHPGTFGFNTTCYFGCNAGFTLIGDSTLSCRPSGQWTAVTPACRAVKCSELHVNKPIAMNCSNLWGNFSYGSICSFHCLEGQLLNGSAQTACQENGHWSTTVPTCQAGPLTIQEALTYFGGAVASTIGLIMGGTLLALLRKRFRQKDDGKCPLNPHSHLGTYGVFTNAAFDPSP
The experiment in a line: Blocking activity on Selectin P ligand binding.

As usually defined, the IC50 is the concentration that inhibits the measured activity by half. A high value points to lower potency.

`CC(=O)N[C@H]1[C@H]([C@H](O)[C@H](O)CO)O[C@@](O[C@H]2[C@@H](O)[C@@H](CO)O[C@@H](O[C@@H]([C@H](O[C@@H]3O[C@@H](C)[C@@H](O)[C@@H](O)[C@@H]3O)[C@H](C=O)NC(C)=O)[C@H](O)CO)[C@@H]2O)(C(=O)O)C[C@@H]1O` [SIALYL LEWIS X] yielded an IC50 of over 1000 µM.

The values are drawn from ChEMBL document CHEMBL1129394, “Studies on selectin blocker. 3. Investigation of the carbohydrate ligand sialyl Lewis X recognition site of P-selectin” (J Med Chem, 1996).
